Usually AC50 stands for the concentration at which the activity in the assay is half-maximal. A low value points to activity at low concentration.

This note sets out measurements from US11241436B2, “Autophagy inducers for treatment of CNS conditions” (Northwestern University, priority 2017, dated 2022).

SMILES strings stand for the structures.

The subject of the assay is LC3. The experiment in a line: Promega Autophagy Assay System (HiBiT-tagged LC3 reporter, autophagy flux). It counts as cell-based. The note with it: LC3 reporter signal; decrease = increased autophagy. An excerpt:
The Promega Augophagy Assay System uses LC3 to monitor the autophagy process. […] LgBiT is a […] recombinant protein derived from NanoLuc. When HiBiT associates with LgBiT, a strong luciferase activity is reconstituted. An increase in autophagy will accelerate the degradation of LC3 reporter which decreases the assay signal. In contrast, inhibition of autophagy causes the accumulation of LC3 which will increase the reporter levels and assay signal.
On the technique in general: With HiBiT, luminescence reflects the tagged protein that the partner subunit can reach.
The molecule `COC(Cn1cnc2c(c(-c3ccccc3)c(-c3ccccc3)n2Cc2ccccc2)c1=N)OC` had an AC50 of 0.231 µM.

`N=c1c2c(-c3ccccc3)c(-c3ccccc3)n(CC3CCCCC3)c2ncn1C[C@H]1CCCC[C@@H]1O`: half-maximal activity (AC50) was put at 0.366 µM.

`N=c1c2c(-c3ccccc3)c(-c3ccccc3)n(CCc3ccccc3)c2ncn1[C@H]1CC[C@H](O)CC1` came in with an AC50 of 1.16 µM.

In turn, `COc1ccc(Cn2c(-c3ccccc3)c(-c3ccccc3)c3c(=N)n([C@H]4CC[C@H](O)CC4)cnc32)cc1` returned an AC50 of 1.64 µM.

Molecule `N=c1c2c(-c3ccccc3)c(-c3ccccc3)n(Cc3ccccc3)c2ncn1CCC1CCC(O)CC1` (stereo not drawn) showed an AC50 of 1.84 µM.

For `N=c1c2c(-c3ccccc3)c(-c3ccccc3)n(Cc3ccccc3)c2ncn1C1CCOCC1`, half-maximal activity (AC50) was put at 2.31 µM.

For `COc1ccc(Cn2c(-c3ccccc3)c(-c3ccccc3)c3c(=N)n(CCO)cnc32)cc1`, the activity was half-maximal at 2.59 µM (AC50).

For the molecule `COc1ccc(Cn2c(-c3ccccc3)c(-c3ccccc3)c3c(=N)n(C4CCOCC4)cnc32)cc1`, the AC50 is 2.59 µM.

For the molecule `N=c1c2c(-c3ccccc3)c(-c3ccccc3)n(Cc3ccc(OC(F)(F)F)cc3)c2ncn1[C@H]1CC[C@H](O)CC1`, the activity was half-maximal at 2.59 µM (AC50).

Consider `N=c1c2c(-c3ccccc3)c(-c3ccccc3)n(Cc3ccccc3)c2ncn1C1CCC(O)CC1` (stereo not drawn), for which the activity was half-maximal at 2.91 µM (AC50).

`CO[C@H]1CC[C@H](n2cnc3c(c(-c4ccccc4)c(-c4ccccc4)n3Cc3ccccc3)c2=N)CC1` had an AC50 of 2.91 µM.

The molecule `COC1CCC(n2cnc3c(c(-c4ccccc4)c(-c4ccccc4)n3Cc3ccc(OC(F)(F)F)cc3)c2=N)CC1` (stereo not drawn) showed an AC50 of 2.91 µM.

`N=c1c2c(-c3ccccc3)c(-c3ccccc3)n(CCc3ccccc3)c2ncn1CC1CCOC1` (stereo not drawn): the AC50 is 9.2 µM.

`N=c1c2c(-c3ccccc3)c(-c3ccccc3)n(Cc3ccc(OC(F)(F)F)cc3)c2ncn1C1CCOCC1` came in with an AC50 of 9.2 µM.

As to `N=c1c2c(-c3ccccc3)c(-c3ccccc3)n(Cc3ccc(OC(F)(F)F)cc3)c2ncn1CC1CCOCC1`, the activity was half-maximal at 9.2 µM (AC50).

`N=c1c2c(-c3ccccc3)c(-c3ccccc3)n(Cc3ccc(OC(F)(F)F)cc3)c2ncn1CCCO`: the AC50 is 9.2 µM.

Regarding `N=c1c2c(-c3ccccc3)c(-c3ccccc3)n(Cc3ccccc3)c2ncn1CCCCCO`, the AC50 was 10.3 µM.

`CN(C)CCn1cnc2c(c(-c3ccccc3)c(-c3ccccc3)n2Cc2ccccc2)c1=N` had an AC50 of 10.3 µM.

Regarding `N=c1c2c(-c3ccccc3)c(-c3ccccc3)n(CCc3ccccc3)c2ncn1CCCCO`, the AC50 is 10.3 µM.

For `COc1ccc(Cn2c(-c3ccccc3)c(-c3ccccc3)c3c(=N)n(CCCCO)cnc32)cc1`, half-maximal activity (AC50) was put at 10.3 µM.

For the molecule `N=c1c2c(-c3ccccc3)c(-c3ccccc3)n(CCc3ccccc3)c2ncn1CC1CCOCC1`, half-maximal activity (AC50) was put at 10.3 µM.

Take `N=c1c2c(-c3ccccc3)c(-c3ccccc3)n(Cc3ccccc3)c2ncn1CC1CCOCC1`: half-maximal activity (AC50) was put at 10.3 µM.

The molecule `N=c1c2c(-c3ccccc3)c(-c3ccccc3)n(CC3CC3)c2ncn1CCCO` yielded an AC50 of 10.3 µM.

Take `N=c1c2c(-c3ccccc3)c(-c3ccccc3)n(CC3CCCCC3)c2ncn1C1CCOCC1`: the AC50 was found to be 10.3 µM.

The molecule `COCCn1cnc2c(c(-c3ccccc3)cn2Cc2ccccc2)c1=N` yielded an AC50 of 11.6 µM.

In turn, `N=c1c2c(-c3ccccc3)c(-c3ccccc3)n(Cc3ccccc3)c2ncn1CCCCO` showed an AC50 of 11.6 µM.

Take `CC[Si](CC)(CC)OCCCn1cnc2c(c(-c3ccccc3)cn2Cc2ccc(Br)cc2)c1=N`: the AC50 amounted to 13 µM.

`COCCn1cnc2c(c(-c3ccccc3)c(-c3ccccc3)n2Cc2ccccc2)c1=N`: the activity was half-maximal at 13 µM (AC50).

As for `N=c1c2c(-c3ccccc3)c(-c3ccccc3)n(Cc3ccccc3)c2ncn1CCN`, the AC50 stood at 13 µM.

For `N=c1c2c(-c3ccccc3)c(-c3ccccc3)n(CCc3ccccc3)c2ncn1CCCCCO`, the AC50 is 13 µM.

Consider `CCOC(CCCn1cnc2c(c(-c3ccccc3)c(-c3ccccc3)n2CCc2ccccc2)c1=N)OCC`, for which half-maximal activity (AC50) was put at 13 µM.

Take `COC(=O)c1cccc(Cn2cnc3c(c(-c4ccccc4)c(-c4ccccc4)n3CCc3ccccc3)c2=N)c1`: half-maximal activity (AC50) was put at 13 µM.

In the case of `N=c1c2c(-c3ccccc3)c(-c3ccccc3)n(Cc3ccccc3)c2ncn1C[C@@H]1CCCC[C@H]1O`, the AC50 amounted to 13 µM.

`COc1ccc(-c2c(-c3ccc(OC)cc3)n(Cc3ccccc3)c3ncn([C@H]4CC[C@H](OC)CC4)c(=N)c23)cc1` yielded an AC50 of 13 µM.

`N=c1c2c(-c3ccccc3)cn(Cc3ccccc3)c2ncn1[C@@H]1CCCC[C@H]1N`: the AC50 is 14.6 µM.

As for `N=c1c2c(-c3ccccc3)c(-c3ccccc3)n(Cc3ccccc3)c2ncn1CC1CCCO1` (stereo not drawn), the activity was half-maximal at 14.6 µM (AC50).

With `N=c1c2c(-c3ccccc3)c(-c3ccccc3)n(CC3CCCCC3)c2ncn1CC1CCOCC1`, half-maximal activity (AC50) was put at 14.6 µM.

As to `N=c1c2c(-c3ccccc3)cn(Cc3ccc(Br)cc3)c2ncn1CCCN1CCN(c2ccccc2)CC1`, the AC50 was 16.4 µM.

Take `N=c1c2c(-c3ccccc3)cn(Cc3ccccc3)c2ncn1C1CCC(O)CC1` (stereo not drawn): the activity was half-maximal at 16.4 µM (AC50).

Molecule `COc1ccc(CCn2cnc3c(c(-c4ccccc4)cn3Cc3ccccc3)c2=N)cc1OC` returned an AC50 of 16.4 µM.

Consider `N=c1c2c(-c3ccccc3)cn(Cc3ccccc3)c2ncn1Cc1ccco1`, for which the AC50 came to 16.4 µM.

As to `N=c1c2c(-c3ccccc3)c(-c3ccccc3)n(Cc3ccccc3)c2ncn1Cc1ccc2c(c1)OCO2`, the AC50 is 16.4 µM.

`COc1ccc(Cn2c(-c3ccccc3)c(-c3ccccc3)c3c(=N)n(CC(OC)OC)cnc32)cc1` showed an AC50 of 16.4 µM.

`N=c1c2c(-c3ccccc3)c(-c3ccccc3)n(CC3CCCCC3)c2ncn1[C@H]1CC[C@H](O)CC1` registered an AC50 of 16.4 µM.

In turn, `N=c1c2c(-c3ccc4c(c3)OCO4)c(-c3ccc4c(c3)OCO4)n(Cc3ccccc3)c2ncn1C1CCOCC1` returned an AC50 of 18.4 µM.

Molecule `N=c1c2c(-c3ccccc3)c(-c3ccccc3)n(CCc3ccccc3)c2ncn1C[C@@H]1CCCC[C@H]1O` yielded an AC50 of 18.4 µM.

Molecule `N=c1c2c3c(n(CCc4ccccc4)c2ncn1CCCO)CCCC3` came in with an AC50 of 18.4 µM.

On to `N=c1c2c(-c3ccccc3)c(-c3ccccc3)n(Cc3ccccc3)c2ncn1CCNc1ccncc1`, for which the AC50 amounted to 20.6 µM.

`CCOC(CCCn1cnc2c(c(-c3ccccc3)c(-c3ccccc3)n2Cc2ccccc2)c1=N)OCC` displayed an AC50 of 20.6 µM.

`COCCn1cnc2c(c(-c3ccccc3)c(-c3ccccc3)n2CCc2ccccc2)c1=N` had an AC50 of 20.6 µM.

As to `N=c1c2c(-c3ccccc3)c(-c3ccccc3)n(CCc3ccccc3)c2ncn1[C@H](CO)Cc1ccccc1`, the AC50 is 20.6 µM.

Molecule `CCOC(CCCn1cnc2c(c(-c3ccccc3)c(-c3ccccc3)n2Cc2ccc(OC)cc2)c1=N)OCC` gave an AC50 of 20.6 µM.

Take `COc1ccc(Cn2c(-c3ccccc3)c(-c3ccccc3)c3c(=N)n([C@H](C)[C@@H](O)c4ccccc4)cnc32)cc1`: the AC50 was found to be 20.6 µM.

The molecule `COc1ccc(Cn2c(-c3ccccc3)c(-c3ccccc3)c3c(=N)n(CC4CCCO4)cnc32)cc1` (stereo not drawn) gave an AC50 of 20.6 µM.

Molecule `COc1ccc(Cn2c(-c3ccccc3)c(-c3ccccc3)c3c(=N)n(N4CCOCC4)cnc32)cc1` showed an AC50 of 20.6 µM.

In turn, `N=c1c2c(-c3ccccc3)c(-c3ccccc3)n(Cc3ccccc3)c2ncn1CC1CCOC1` (stereo not drawn) had an AC50 of 20.6 µM.

`COc1ccc(-c2c(-c3ccc(OC)cc3)n(Cc3ccccc3)c3ncn(CCCO)c(=N)c23)cc1` had an AC50 of 20.6 µM.

`N=c1c2c(-c3ccccc3)c(-c3ccccc3)n(CC3CC3)c2ncn1CC1CCOCC1` gave an AC50 of 20.6 µM.

As for `COc1ccc(-c2c(-c3ccc(OC)cc3)n(Cc3ccccc3)c3ncn(CC4CCOCC4)c(=N)c23)cc1`, the AC50 was found to be 20.6 µM.

The molecule `COc1ccc(-c2c(-c3ccc(OC)cc3)n(Cc3ccccc3)c3ncn([C@@H]4CCCC[C@H]4CO)c(=N)c23)cc1` gave an AC50 of 20.6 µM.

For `Cc1ccc(-c2c(C(=O)CF)n(CCCO)c3ncnc(N)c23)cc1`, the activity was half-maximal at 20.6 µM (AC50).

`N=c1c2c(-c3ccccc3)cn(Cc3ccccc3)c2ncn1CCCN1CCN(c2ccccc2)CC1` showed an AC50 of 23.1 µM.

Take `N=c1c2c(-c3ccccc3)c(-c3ccccc3)n(Cc3ccccc3)c2ncn1[C@H](CO)Cc1ccccc1`: the activity was half-maximal at 23.1 µM (AC50).

With `COC(Cn1cnc2c(c(-c3ccccc3)c(-c3ccccc3)n2CCc2ccccc2)c1=N)OC`, the activity was half-maximal at 23.1 µM (AC50).

Regarding `COc1ccc(CCn2cnc3c(c(-c4ccccc4)c(-c4ccccc4)n3Cc3ccccc3)c2=N)cc1OC`, the activity was half-maximal at 23.1 µM (AC50).

In turn, `N=c1c2c(-c3ccccc3)c(-c3ccccc3)n(CCc3ccccc3)c2ncn1CC1CCCO1` (stereo not drawn) showed an AC50 of 23.1 µM.

Take `COCCn1cnc2c(c(-c3ccccc3)c(-c3ccccc3)n2Cc2ccc(OC)cc2)c1=N`: the AC50 is 23.1 µM.

As for `COc1ccc(-c2c(-c3ccc(OC)cc3)n(Cc3ccccc3)c3ncn(C4CCOCC4)c(=N)c23)cc1`, the AC50 was 23.1 µM.

Consider `Cc1c(C)n(Cc2ccccc2)c2ncn(C3CCOCC3)c(=N)c12`, for which half-maximal activity (AC50) was put at 23.1 µM.

Consider `Cc1ccc(-c2c(C(=O)CCl)n(CCCO)c3ncnc(N)c23)cc1`, for which the AC50 stood at 23.1 µM.

Turning to `N=c1c2c(-c3ccccc3)cn(Cc3ccc(Br)cc3)c2ncn1CCCCO`, the AC50 was found to be 25.9 µM.

The molecule `N=c1c2c(-c3ccccc3)cn(Cc3ccccc3)c2ncn1[C@H](CO)Cc1ccccc1` had an AC50 of 25.9 µM.

The molecule `N=c1c2c(-c3ccccc3)cn(Cc3ccccc3)c2ncn1C(CO)(CO)CO` gave an AC50 of 29.1 µM.

Molecule `N=c1c2c(-c3ccccc3)c(-c3ccccc3)n(Cc3ccccc3)c2ncn1CCCN1CCN(c2ccccc2)CC1` yielded an AC50 of 29.1 µM.

`CN(C)CCCn1cnc2c(c(-c3ccccc3)c(-c3ccccc3)n2Cc2ccccc2)c1=N` displayed a half-maximal activity concentration (AC50) of 29.1 µM.

The molecule `C[C@H]([C@@H](O)c1ccccc1)n1cnc2c(c(-c3ccccc3)c(-c3ccccc3)n2Cc2ccccc2)c1=N` showed an AC50 of 29.1 µM.

The molecule `N=c1c2c(-c3ccccc3)c(-c3ccccc3)n(Cc3ccccc3)c2ncn1C1CCN(Cc2ccccc2)CC1` returned an AC50 of 29.1 µM.

`CN(C)CCCn1cnc2c(c(-c3ccccc3)c(-c3ccccc3)n2CCc2ccccc2)c1=N`: half-maximal activity (AC50) was put at 32.6 µM.
